Experimental data taken from US20030171368A1, “Pyrimidinonesulfamoylureas`” (priority 2002, published 2003).
Values after ≈ are worked out from the molar mass of the structure shown.

System: not listed separately
Assay: Solubility in water (10 mg in 1 ml H2O, shaken, centrifuged, HPLC against DMSO solution)
Type: physicochemical
Details: 10 mg substance in 1 ml H2O, shaken 10 minutes, supernatant measured by HPLC
Method: The compounds of the general formula I according to the invention are distinguished in comparison to the substances described in WO 00/61551 by more advantageous physicochemical properties, in particular an improved solubility in water.
10 mg of the substance to be investigated were dissolved in 1 ml of DMSO, vigorously shaken for 10 minutes and then centrifuged for 10 minutes at 10000 rpm and diluted with a mixture of 5% CH3CN/H2O+0.1% TFA 1:10.
10 mg of substance were mixed with 1 ml of H2O, vigorously shaken for 10 minutes and centrifuged for 10 minutes at 10000 rpm. The supernatant was removed and likewise diluted. Both solutions were measured by HPLC (column: MACHEREY & NAGEL, Nucleosil C18 PPN, 100×2.1 mm ID, 5μ, temp: 40° C.) and the concentration of the aq. solution was determined.

Solubility (H2O)	Structure (SMILES)
560 µg/mL	CCOC(=O)N[C@@H](Cn1cc(C)c(N2CCC(CNc3nc4ccccc4[nH]3)CC2)nc1=O)C(=O)O.Cl [(2S)-3-(4-{4-[(1H-Benzimidazol-2-ylamino)methyl]-1-piperidlnyl}-5-methyl-2-oxo-1(2H)-pyrimidinyl)-2-[(ethoxycarbonyl)amino]propanoic acid (hydrochloride)]

Same assay, conditions: water, thermodynamic from solid, 10 mg substance in 1 ml H2O, shaken 10 minutes, supernatant measured by HPLC

solubility at 10 min	Structure (SMILES)
1000 µg/mL	CC(=O)N[C@@H](Cn1cc(C)c(N2CCC(CNc3nc4ccccc4[nH]3)CC2)nc1=O)C(=O)O.Cl [(2S)-2-(Acetylamino)-3-(4-{4-[(1H-benzimidazol-2-ylamino)methyl]-1-piperidinyl}-5-methyl-2-oxo-1(2H)-pyrimidinyl)propanoic acid (hydrochloride)]
860 µg/mL (≈ 1730 µM)	CCNC(=O)N[C@@H](Cn1cc(C)c(N2CCC(CNc3nc4ccccc4[nH]3)CC2)nc1=O)C(=O)O [(2S)-3-(4-{4-[(1H-Benzimidazol-2-ylamino)methyl]-1-piperidinyl}-5-methyl-2-oxo-1(2H)-pyrimidinyl)-2-{[(ethylamino)carbonyl]amino}propanoic acid]
< 50 µg/mL	Cc1cn(C[C@H](NS(C)(=O)=O)C(=O)O)c(=O)nc1N1CCC(CNc2nc3ccccc3[nH]2)CC1.Cl [(2S)-3-(4-{4-[(1H-Benzimidazol-2-ylamino)methyl]-1-piperidinyl}-5-methyl-2-oxo-1(2H)-pyrimidinyl)-2-[(methylsulfonyl)amino]propanoic acid (hydrochloride)]
2500 µg/mL	Cc1cn(C[C@H](NS(=O)(=O)N(C)C)C(=O)O)c(=O)nc1N1CCC(CNc2nc3ccccc3[nH]2)CC1.Cl.Cl [Example 2, (2S)-3-(4-{4-[(1H-Benzimidazol-2-ylamino)methyl]-1-piperidinyl}-5-methyl-2-oxo-1 (2H)-pyrimidinyl)-2-{[(dimethylamino)sulfonyl]amino}propionic acid (dihydrochloride)]
810 µg/mL	Cc1cn(C[C@H](NC(=O)N(C)C)C(=O)O)c(=O)nc1N1CCC(CNc2nc3ccccc3[nH]2)CC1.Cl [(2S)-3-(4-{4-[(1H-Benzimidazol-2-ylamino)methyl]-1-piperidinyl}-5-methyl-2-oxo-1(2H)-pyrimidinyl)-2-{[(dimethylamino)carbonyl]amino}propanoic acid (hydrochloride)]
< 50 µg/mL	CC(=O)O.Cc1cn(C[C@H](NS(=O)(=O)c2ccccc2)C(=O)O)c(=O)nc1N1CCC(CNc2nc3ccccc3[nH]2)CC1 [(2S)-3-(4-{4-[(1H-Benzimidazol-2-ylamino)methyl]-1-piperidinyl}-5-methyl-2-oxo-1(2H)-pyrimidinyl)-2-[(phenylsulfonyl)amino]propanoic acid (acetate)]

Target: T1, integrin αvβ3 (Homo sapiens, UniProt P05106+P06756)
T1 construct: from tissue; host or cells: human placenta
Assay: Integrin αvβ3 assay: competition between vitronectin and test substance for binding to solid phase-bound integrin αvβ3
Details: competition with human vitronectin; result in words only
Method: For the identification and assessment of integrin αvβ3 ligands, a test system was used which is based on competition between the natural integrin αvβ3 ligand vitronectin and the test substance for binding to solid phase-bound integrin αvβ3. […]
coat microtiter plates with 250 ng/ml of integrin αvβ3 in 0.05 M NaHCO3 pH 9.2; 0.1 ml/well; overnight/4° C. saturate with 1% milk powder/assay buffer; 0.3 ml/well; 0.5 h/RT wash 3× with 0.05% Tween 20/assay buffer test substance in 0.1% milk powder/assay buffer, 50 μl/well +0 μg/ml or 2 μg/ml of human vitronectin (Boehringer Ingelheim T007) in 0.1% milk powder/assay buffer, 50 μl/well; 1 h/RT […]
1 μg/ml of anti-human vitronectin antibody coupled to peroxidase (Kordia SAVN-APHRP) in 0.1% milk powder/assay buffer; 0.1 ml/well; 1 h/RT […]
0.1 ml/well of peroxidase substrate stop reaction with 0.1 ml/well of 2 M H2SO4 measurement of the absorption at 450 nm
Integrin αvβ3: Human placenta is solubilized with Nonidet and integrin αvβ3 is affinity-purified on a GRGDSPK matrix (elution mit EDTA). Impurities due to integrin […] and human serum albumin, and the detergent and EDTA are removed by anion exchange chromatography. […]

IC50 values (concentration of the ligand at which 50% of the ligand is displaced)	Structure (SMILES)
best results	Cc1cn(C[C@H](NS(=O)(=O)N(C)C)C(=O)O)c(=O)nc1N1CCC(CNc2nc3ccccc3[nH]2)CC1.Cl.Cl [Example 2, (2S)-3-(4-{4-[(1H-Benzimidazol-2-ylamino)methyl]-1-piperidinyl}-5-methyl-2-oxo-1 (2H)-pyrimidinyl)-2-{[(dimethylamino)sulfonyl]amino}propionic acid (dihydrochloride)]
best results	Cc1cn(C[C@H](NS(=O)(=O)N(C)C)C(=O)O)c(=O)nc1N1CCC(CNc2ccccn2)CC1 [Example 9, (2S)-2-{[(Dimethylamino)sulfonyl]amino}-3-(5-methyl-2-oxo-4-{4-[(2-pyridinylamino)-methyl]-1-piperidinyl}-1 (2H)-pyrimidinyl)propionic acid]
